The values below are quoted from earlier work in patent publication US20090239783A1, “SYNERGISTIC EFFECTS OF COMBINED ADMINISTRATION OF MIRTAZAPINE AND A STIMULANT COMPOUND” (priority 2004, published 2009).

For one series, the target named is histamine (H1) (Homo sapiens, UniProt P35367).
Chain of histamine (H1) (P35367 whole entry): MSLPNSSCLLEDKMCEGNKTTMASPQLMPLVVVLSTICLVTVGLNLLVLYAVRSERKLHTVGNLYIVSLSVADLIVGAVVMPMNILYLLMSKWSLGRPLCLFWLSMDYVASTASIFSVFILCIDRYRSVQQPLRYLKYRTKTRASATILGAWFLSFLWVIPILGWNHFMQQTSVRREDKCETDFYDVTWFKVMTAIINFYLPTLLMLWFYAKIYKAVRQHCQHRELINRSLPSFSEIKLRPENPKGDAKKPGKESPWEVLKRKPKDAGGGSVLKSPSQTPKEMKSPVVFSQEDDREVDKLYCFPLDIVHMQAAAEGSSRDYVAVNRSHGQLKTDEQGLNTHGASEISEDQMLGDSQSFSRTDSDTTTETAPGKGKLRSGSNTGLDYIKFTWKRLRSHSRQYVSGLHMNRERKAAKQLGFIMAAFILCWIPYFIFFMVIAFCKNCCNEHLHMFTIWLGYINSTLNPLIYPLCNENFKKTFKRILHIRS

On to `CN1CCN2c3ncccc3Cc3ccccc3C2C1` (stereo not shown) [Mirtazapine, 1,2,3,4,10,14b-hexahydro-2-methylpyrazino [2,1-a] pyrido [2,3-c] benzazepine], for which the solubility in water result is “slightly soluble”. The “affinity for 5-HT1 receptors” value in the series with 5-HT1 receptors is recorded as “weak”. In the series on muscarinic, the muscarinic anticholinergic properties result is recorded as “very weak”. In addition, the “histamine (H1) antagonist properties” value on histamine (H1) is reported as “very weak”.
